Laboratory results: patent US20140294856A1, “COMBINATION TREATMENT COMPRISING A HDAC6 INHIBITOR AND AN AKT INHIBITOR” (priority 2011, published 2014)
Converted amounts (≈) assume the structure as drawn. Where two headings read alike, the source gives them in different places.

Tests used:
HDAC1 = HDAC1 (Homo sapiens, UniProt Q13547); assay: Enzyme inhibition activity, Fluor-de-Lys kit; type: biochemical
[1] = system: HDAC from HeLa cell extract; assay: Irreversible HDAC inhibition, HeLa nuclear extracts; type: biochemical
Method: FIG. 1. HDAC-C1A irreversible activity. A. […] inhibitory activity of HDAC-C1A was tested using HeLa nuclear extracts and compared to the negative (reversible) control HDAC-C1B. B Growth inhibitory effect of the different compounds in HCT-116 cells at indicated time and compared to growth inhibitory after 72 hours of incubation.
HSP90 protein expression was not altered (FIG. 2).

KELLY = assay: Growth inhibition, SRB assay, 72 hours; type: cell-based; settings: KELLY neuroblastoma
A2780 cells = assay: Growth inhibition (GI50); type: cell-based, human
HCT116 cells = assay: Growth inhibition (GI50); type: cell-based, human
Text: Different treatment scheduling are shown. […] The results are mean of n=6.

[2] = system: A2780 human ovarian cancer xenograft; assay: Anti-tumour activity in A2780 xenograft model; type: in vivo
Method: (§1) FIG. 5. Anti-tumour activity of HDAC-C1A in A2780 (A & B) and HCT116 (C & D) xenograft models (Tumours volumes relative to tumour volume at day 1 (A & C) and corresponding body weight (relative to body weight at day 1) (B & D)). E. Biomarkers screening at early time points following a single injection of HDAC-C1A in HCT116 xenograft at 40 mg/kg compared to a continuous 14 days treatment at the indicated dose. Tumours were excised 6 hours following the last injection.
(§2) The drug was stable after oral, parenteral and intravenous administration for 24 h (last time point examined). […] The Cma and AUC0-24h following i.p. injection (20 mg/kg) were 3.2 μg/mL and 11.2 μg/mL*h, respectively. […] The acid instability of HDAC-C1A could therefore be improved by enteric coating as a means to avoid breakdown in the stomach. […] HDAC-C1A was also tested in HCT116 human colon cancer xenograft model using a refined dose and scheduling. […] This dose was non-toxic (no reduction in body weight) (FIG. 5.D). The acetylated form of α-tubulin (biomarker of response to HDAC6 inhibition) could be observed after 14 days of treatment and could be detected as early as 6 hours after the 1st injection (FIG. 5.E.). The acetylated form of Histone 3 (biomarker of response of class I histones) could be observed as early as 2 hours after the 1st injection and remain after 14 days of treatment (FIG. 5.E).

HCT116 xenograft = assay: Biomarkers screening in HCT116 xenograft tumours; type: in vivo, mice
Method: as §1, §2

ABC transporters = assay: Expression of ABC transporters (protein and mRNA) in tumours; type: in vivo, mice; settings: 14 days of treatment
[3] = system: CHO cells deficient in DNA repair; assay: Growth inhibition in cell lines deficient in DNA repair machinery; type: cell-based
A2780 = assay: Phospho-AKT levels by western blotting; type: cell-based, human; settings: ovarian cancer cell line A2780
Ishikawa = assay: Phospho-AKT levels by western blotting; type: cell-based; settings: endometrial cancer cell line Ishikawa (PTEN-null)
HCT116 tumours = assay: Phospho-AKT levels in HCT116 tumours; type: in vivo, mice
[4] = system: HCT116 human colon cancer xenograft
caco-2 cells = assay: caco-2 transwell permeability assay
ABCG2 = target: T1, ABCG2 (Homo sapiens, UniProt Q9UNQ0); assay: Impact of ABCG2 on cytotoxicity, SRB assay, MCF7-MX vs MCF7
T1 sequence (Q9UNQ0 1-655): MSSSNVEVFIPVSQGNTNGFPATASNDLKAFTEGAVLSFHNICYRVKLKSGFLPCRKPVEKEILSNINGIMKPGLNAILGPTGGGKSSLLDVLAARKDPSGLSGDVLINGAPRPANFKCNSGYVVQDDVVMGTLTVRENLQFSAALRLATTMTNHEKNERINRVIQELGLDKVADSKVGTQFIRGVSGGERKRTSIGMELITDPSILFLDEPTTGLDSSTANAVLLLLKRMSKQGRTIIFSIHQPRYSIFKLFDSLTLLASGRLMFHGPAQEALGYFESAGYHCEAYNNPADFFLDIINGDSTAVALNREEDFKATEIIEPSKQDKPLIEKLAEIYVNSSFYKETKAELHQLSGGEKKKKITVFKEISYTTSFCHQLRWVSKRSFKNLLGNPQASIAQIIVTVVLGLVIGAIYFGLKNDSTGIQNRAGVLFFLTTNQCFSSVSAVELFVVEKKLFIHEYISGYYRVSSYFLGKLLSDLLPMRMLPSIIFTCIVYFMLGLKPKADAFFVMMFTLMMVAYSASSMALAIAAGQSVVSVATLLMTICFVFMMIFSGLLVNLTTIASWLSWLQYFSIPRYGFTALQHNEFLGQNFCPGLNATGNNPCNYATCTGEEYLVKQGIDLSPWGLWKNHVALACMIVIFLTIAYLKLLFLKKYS

MRP1 = MRP1 (Homo sapiens, UniProt P33527); assay: Impact of MRP1 on cytotoxicity, MK-571 pre-treatment in A549 cells
MRP1, sequence (P33527 whole entry): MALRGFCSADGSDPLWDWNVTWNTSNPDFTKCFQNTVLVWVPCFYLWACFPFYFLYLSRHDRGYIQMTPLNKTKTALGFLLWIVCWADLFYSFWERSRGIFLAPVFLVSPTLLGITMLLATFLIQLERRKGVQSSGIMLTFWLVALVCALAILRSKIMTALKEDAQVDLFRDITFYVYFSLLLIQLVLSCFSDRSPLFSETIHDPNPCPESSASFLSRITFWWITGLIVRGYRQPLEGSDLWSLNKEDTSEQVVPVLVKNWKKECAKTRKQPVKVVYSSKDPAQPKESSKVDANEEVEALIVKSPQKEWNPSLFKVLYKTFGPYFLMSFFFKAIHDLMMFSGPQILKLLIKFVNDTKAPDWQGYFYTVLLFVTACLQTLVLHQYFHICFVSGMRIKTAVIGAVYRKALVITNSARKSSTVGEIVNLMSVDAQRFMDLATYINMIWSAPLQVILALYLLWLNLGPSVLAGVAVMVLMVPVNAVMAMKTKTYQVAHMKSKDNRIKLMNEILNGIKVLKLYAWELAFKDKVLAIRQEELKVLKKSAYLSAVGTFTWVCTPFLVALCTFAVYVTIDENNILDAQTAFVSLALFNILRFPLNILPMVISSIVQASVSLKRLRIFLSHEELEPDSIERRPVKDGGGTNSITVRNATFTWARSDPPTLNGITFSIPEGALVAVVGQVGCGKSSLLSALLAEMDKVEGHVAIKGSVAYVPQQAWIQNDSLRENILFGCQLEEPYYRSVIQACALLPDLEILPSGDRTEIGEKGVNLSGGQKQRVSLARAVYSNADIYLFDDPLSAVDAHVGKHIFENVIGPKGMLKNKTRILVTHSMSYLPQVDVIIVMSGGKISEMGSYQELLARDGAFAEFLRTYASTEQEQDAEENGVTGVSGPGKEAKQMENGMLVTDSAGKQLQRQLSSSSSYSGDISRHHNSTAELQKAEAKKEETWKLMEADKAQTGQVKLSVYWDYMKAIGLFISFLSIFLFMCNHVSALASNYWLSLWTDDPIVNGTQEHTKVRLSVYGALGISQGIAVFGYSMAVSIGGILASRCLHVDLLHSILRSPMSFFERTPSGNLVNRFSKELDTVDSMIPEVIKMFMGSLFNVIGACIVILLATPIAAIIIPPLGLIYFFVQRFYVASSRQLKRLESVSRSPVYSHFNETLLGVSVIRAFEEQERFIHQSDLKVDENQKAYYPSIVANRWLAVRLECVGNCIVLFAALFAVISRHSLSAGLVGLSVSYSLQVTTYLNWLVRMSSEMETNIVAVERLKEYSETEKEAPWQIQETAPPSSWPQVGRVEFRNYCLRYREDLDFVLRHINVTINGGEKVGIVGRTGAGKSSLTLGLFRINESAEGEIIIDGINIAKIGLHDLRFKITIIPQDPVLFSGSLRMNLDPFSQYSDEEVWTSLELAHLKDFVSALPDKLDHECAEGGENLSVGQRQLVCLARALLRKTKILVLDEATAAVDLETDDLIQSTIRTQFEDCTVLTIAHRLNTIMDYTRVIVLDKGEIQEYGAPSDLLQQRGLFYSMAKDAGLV
Method: The impact of ABC transporters on the cytotoxicity of HDAC-C1A was assessed using cell lines with differential expression of the ABC transporters and by using inhibitors.

P-gp = P-gp (Homo sapiens, UniProt P08183)
P-gp, sequence (P08183 whole entry): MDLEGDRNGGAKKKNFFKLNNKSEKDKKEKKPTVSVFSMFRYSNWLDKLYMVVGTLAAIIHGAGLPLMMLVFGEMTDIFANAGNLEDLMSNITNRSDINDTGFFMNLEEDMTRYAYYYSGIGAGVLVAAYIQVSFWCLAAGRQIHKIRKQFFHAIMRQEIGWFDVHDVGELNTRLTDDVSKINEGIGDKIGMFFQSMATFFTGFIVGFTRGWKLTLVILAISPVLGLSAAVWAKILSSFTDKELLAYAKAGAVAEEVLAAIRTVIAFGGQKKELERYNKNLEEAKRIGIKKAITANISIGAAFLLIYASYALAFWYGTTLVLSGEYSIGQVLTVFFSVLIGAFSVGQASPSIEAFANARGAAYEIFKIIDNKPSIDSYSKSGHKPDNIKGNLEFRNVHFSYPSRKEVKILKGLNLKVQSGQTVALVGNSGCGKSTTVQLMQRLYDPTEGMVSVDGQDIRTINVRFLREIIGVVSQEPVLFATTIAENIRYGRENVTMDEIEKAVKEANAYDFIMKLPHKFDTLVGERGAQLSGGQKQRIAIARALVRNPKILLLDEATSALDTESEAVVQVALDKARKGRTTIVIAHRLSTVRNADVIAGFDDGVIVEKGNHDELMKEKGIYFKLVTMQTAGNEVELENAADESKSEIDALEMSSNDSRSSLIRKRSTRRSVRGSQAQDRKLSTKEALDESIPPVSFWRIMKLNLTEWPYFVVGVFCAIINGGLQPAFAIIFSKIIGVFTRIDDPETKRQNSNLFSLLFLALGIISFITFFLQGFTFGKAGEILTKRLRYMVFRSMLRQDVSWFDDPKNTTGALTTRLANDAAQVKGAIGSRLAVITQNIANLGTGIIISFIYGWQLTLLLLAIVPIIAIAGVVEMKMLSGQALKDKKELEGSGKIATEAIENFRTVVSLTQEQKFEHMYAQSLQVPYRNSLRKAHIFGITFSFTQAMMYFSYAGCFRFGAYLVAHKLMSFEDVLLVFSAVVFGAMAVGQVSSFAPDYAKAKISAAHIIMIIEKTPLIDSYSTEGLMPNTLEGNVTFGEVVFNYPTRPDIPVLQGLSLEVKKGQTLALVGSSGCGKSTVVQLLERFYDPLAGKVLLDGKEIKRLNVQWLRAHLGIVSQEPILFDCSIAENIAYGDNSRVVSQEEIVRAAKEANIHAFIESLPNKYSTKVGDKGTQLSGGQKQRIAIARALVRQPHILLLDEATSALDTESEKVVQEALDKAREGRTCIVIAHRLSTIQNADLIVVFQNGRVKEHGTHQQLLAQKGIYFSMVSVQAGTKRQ

[5] = homologous recombination repair
[6] = HDAC-C1A 20 mg/kg bid combined with API-2 1 mg/kg/d
[7] = HDAC-C1A combined with BEZ-235 20 mg/kg/day, given 8 hours apart

HDAC1, sequence (Q13547 whole entry): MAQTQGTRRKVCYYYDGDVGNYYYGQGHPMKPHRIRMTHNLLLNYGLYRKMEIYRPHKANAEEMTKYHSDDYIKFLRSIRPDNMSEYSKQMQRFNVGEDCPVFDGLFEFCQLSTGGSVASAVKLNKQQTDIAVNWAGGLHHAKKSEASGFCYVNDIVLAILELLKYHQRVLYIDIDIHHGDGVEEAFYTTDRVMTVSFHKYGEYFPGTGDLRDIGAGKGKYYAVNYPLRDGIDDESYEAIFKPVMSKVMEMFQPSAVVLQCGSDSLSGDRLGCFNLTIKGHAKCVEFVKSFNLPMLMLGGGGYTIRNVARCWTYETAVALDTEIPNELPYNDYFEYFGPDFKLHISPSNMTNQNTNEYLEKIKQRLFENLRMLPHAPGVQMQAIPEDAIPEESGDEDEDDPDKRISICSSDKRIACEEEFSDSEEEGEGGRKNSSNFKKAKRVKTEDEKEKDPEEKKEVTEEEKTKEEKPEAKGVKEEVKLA

CC(/C=C/C(=O)NO)=C\c1ccc(NS(=O)(=O)c2ccc(N(CCCl)CCCl)cc2)cc1 [HDAC-C1A]
fold more specific for HDAC6 compared with HDAC1 (HDAC1): approximately 17 fold
mode of HDAC inhibition [1]: irreversibly inhibited
GI50 (KELLY): 0.14 µg/mL (≈ 0.281 µM)
GI50 (A2780 cells): 700 nM
GI50 (HCT116 cells): 3700 nM
body weight loss ([2]; 80 mg/kg/day, in some animals, at 7 days, treatment stopped): 10%
Tumour Growth Delay (TGD2x) ([2]; i.p. 80 mg/kg/day): 3 ± 0.3 days
Tumour Growth Inhibition (TGI) compared with vehicle ([2]; i.p. 80 mg/kg/day): 74%
anti-apoptotic factor Bcl2 (HCT116 xenograft; after 48 hours): down-regulated
earliest detection of acetylated Histone 3 after 1st injection (HCT116 xenograft; single injection 40 mg/kg): 2 h
earliest detection of acetylated α-tubulin after 1st injection (HCT116 xenograft; single injection 40 mg/kg): 6 h
expression of ABC transporters vs vehicle (ABC transporters): No difference
sensitivity (GI50 ratio) of cells deficient in XRCC3 vs proficient [3, 5]: as sensitive as the parental proficient cell lines
sensitivity (GI50 ratio, fold) of cells deficient in XRCC2 vs proficient [3, 5]: as sensitive as the parental proficient cell lines
sensitivity (GI50 ratio, fold) of cells deficient in XRCC5 vs proficient ([3]; non homologous end joining): as sensitive as the parental proficient cell lines
sensitivity (GI50 ratio) of cells deficient in ERCC1 vs proficient ([3]; nucleotide excision repair): as sensitive as the parental proficient cell lines
sensitivity of cells deficient in XPB vs proficient ([3]; nucleotide excision repair): as sensitive as the parental proficient cell lines
P-AKT levels (A2780): increased
P-AKT levels increased (Ishikawa): not
P-AKT in tumours (HCT116 tumours; HDAC-C1A alone 20 mg/kg, 6 hours): up-regulation
P-AKT in tumours (HCT116 tumours; HDAC-C1A combined with API-2, 24 hours after single injection): still showed increased P-AKT
P-AKT in tumours (HCT116 tumours; combination regimen BEZ-235 + HDAC-C1A, 6 hours): No P-AKT was detected
TGD2x [4, 6]: 2.7 ± 1.3 days
TGI compared with vehicle [4, 6]: 54%
TGD2x ([4]; HDAC-C1A alone 20 mg/kg/day): 3.8 ± 1.3 days
TGI ([4]; HDAC-C1A alone 20 mg/kg/day): 69%
TGD2x [4, 7]: 8.2 ± 1.3 days
TGI [4, 7]: 74%
TGI ([4]; HDAC-C1A combined with BEZ-235, given 30 minutes apart): 115%
TGD2x ([4]; i.p. 20 mg/kg b.i.d.): 5.7 ± 1.4 days
TGI compared with vehicle ([4]; i.p. 20 mg/kg b.i.d.): 78%
toxicity (body weight) ([4]; i.p. 20 mg/kg b.i.d.): non-toxic
permeability across caco-2 cells (caco-2 cells; Caco-2): relatively good permeability
substrate of the ABC transporters (caco-2 cells; Caco-2): non substrate
permeability (PappA-B) (caco-2 cells; caco-2 cells): 5.1 ×10⁻⁶ cm/s
PappB-A/PappA-B ratio (caco-2 cells; ratio greater than 3 = actively effluxed): 2.8
fold resistance (GI50 ratio) MCF7-MX vs parental MCF7 (ABCG2; ABCG2 overexpressing): 2.8 fold
reversal of resistance by FTC in MCF7-MX cells (ABCG2; FTC, specific inhibitor of ABCG2): 5.2 fold
substrate of MRP1 (MRP1): non-substrates
fold resistance (GI50 ratio) P-gp over-expressing 3T3 vs parental (P-gp): 17 fold
